Assay results: patent publication US20230293430A1, “FORMULATIONS INCLUDING 5-[3-(3-HYDROXYPHENOXY)AZETIDIN-1-YL]-5-METHYL-2,2-DIPHENYLHEXANAMIDE” (Mylan Pharma UK Limited, priority 2020, published 2023)

How the values were obtained:
[1] = Aerosolization performance (fine particle mass / fine particle fraction, Next Generation Impactor); type: physicochemical; conditions: 7% w/w blend strength with 60 μm coarse lactose LH200
Description: The expression “respirable fraction” refers to an index of the percentage of active particles which would reach the lungs in a patient. The respirable fraction is evaluated using a suitable in vitro apparatus such as Andersen Cascade Impactor (ACI), Multi Stage Liquid Impinger (MSLI) or Next Generation Impactor (NGI), according to procedures reported in common Pharmacopoeias, in particular in the European Pharmacopeia (Eur. Ph.) 7.3, 7th Edition, which is incorporated herein by reference in its entirety.
In this example, a dry powder blend formulation of carboxamide hydrochloride and lactose monohydrate was obtained and utilized to provide the MGR002 and MGR003 products. To achieve a FPM of 128 μg of MGR002, it has been determined that a 7% w/w carboxamide hydrochloride dry powder blend was required. The formulation included coarse lactose only (LH200, D50 of 60 μm), with a 5% w/w API overage to account for losses during the blending process. […]
Aerosolization performance information was obtained for the same batches of MGR002 and MGR003 as were used in obtaining emitted data. FIG. 3 illustrates the aerosolization performance as measured by fine particle mass (FPM) obtained from 6 devices from each MGR002 and MGR003 product. […]

[2] = Equivalence of TIR and FPM between products (ratio of geometric means, NGI); type: physicochemical
Description: Aerosolization performance information was obtained for the same batches of MGR002 and MGR003 as were used in obtaining emitted data. FIG. 3 illustrates the aerosolization performance as measured by fine particle mass (FPM) obtained from 6 devices from each MGR002 and MGR003 product. FIG. 4 and Table 37 below present the results and equivalence criteria, respectively for carboxamide hydrochloride of formula II. The results in Table 37 are listed in terms of total impactor recovery (TIR) and fine particle mass (FPM) for MGR001, MGR002 and MGR003, carboxamide compound, salmeterol and fluticasone propionate.
The mean particle mass (FPM) and mean total impactor recovery (TIR) from a next generation impactor (NGI) for each batch were equivalent, based on the fact that the upper/lower 90% confidence interval of the ratio of the geometric mean, and fell between 0.90 and 1.11. […] The fluticasone propionate and salmeterol xinafoate components of the MGR003 drug product also met the same performance targets as the MGR001 250/50 drug product.

| Structure (SMILES) | fine particle mass (FPM) achieved [1] | FPM: ratio of geometric means (MGR002 divided by MGR003) ([2]; fine particle mass) | TIR: ratio of geometric means (MGR002 divided by MGR003) ([2]; total impactor recovery) | FPM: ratio of geometric means (MGR001 divided by MGR003) ([2]; fine particle mass) | TIR: ratio of geometric means (MGR001 divided by MGR003) ([2]; total impactor recovery) |
| --- | --- | --- | --- | --- | --- |
| CC(C)(CCC(C(N)=O)(c1ccccc1)c1ccccc1)N1CC(Oc2cccc(O)c2)C1.Cl [Carboxamide Hydrochloride, 5-[3-(3-Hydroxyphenoxy)azetidin-1-yl]-5-methyl-2,2-diphenylhexanamide hydrochloride] | 138 µg | 0.95 | 0.97 |  |  |
| CCC(=O)O[C@]1(C(=O)SCF)[C@H](C)C[C@H]2[C@@H]3C[C@H](F)C4=CC(=O)C=C[C@]4(C)[C@@]3(F)[C@@H](O)C[C@@]21C [Fluticasone propionate, fluticasone propionate] |  |  |  | 0.99 | 0.96 |
| OCc1cc(C(O)CNCCCCCCOCCCCc2ccccc2)ccc1O (stereo not shown) [Salmeterol, salmeterol xinafoate] |  |  |  | 1.01 | 0.97 |
